Results reported in patent US20260151516A1, “NEW PET TRACER FOR IMAGING OF THE FUNCTIONAL HEPATIC RESERVE” (Medizinische Universität Innsbruck, priority 2022, published 2026).

Legend:
[1] = Biodistribution studies incl. blocking experiments; type: in vivo; details: healthy BALB/c mice
Experimental: For biodistribution studies 6 week old female BALB/c mice (n=3) were injected with 0.1 nmol (100 μL, approx. 1 MBq) of labelled compound via the lateral tail vein and sacrificed after 10, 30, or 60 min by cervical dislocation. The mice were dissected, blood and organs (spleen, pancreas, stomach, intestine, liver, kidney, heart, lung, muscle, and bone) were weighed, and their activity measured in a γ-counter. For blocking experiments, mice were co-injected with 100 μL of a 277 mM Galactose/PBS solution. In case of [^68Ga]Ga-TRAP-GalNAc a 277 mM N-Acetylgalactose solution was used.

[2] = Partition coefficient (log D), n-Octanol/PBS; type: physicochemical
Experimental: The vials were vortexed for 5 min at 1,500 rpm and then centrifuged for 5 min at 20,000 rcf (Eppendorf Centrifuge 5424).

[3] = Ligand stability in human blood serum (radio-HPLC); type: in vitro ADME; details: 37° C., 120 min
Experimental: Ligand stability in human blood serum (n=2) and PBS (n=1) was determined for different time points (2 min, 30 min, 60 min, 120 min). Therefore, approx. 5 MBq of radioligand was added to 1 mL of fresh human serum or PBS and incubated at 37° C. At each given time point 100 μL of the mixture were transferred to a 1.5 mL Eppendorf tube containing 100 μL of acetonitrile. The vial was vortexed and centrifuged for 2 min at 14,000 rpm before 100 μL of the supernatant were diluted with 200 μL of water and injected into analytical radio-HPLC. The PBS solution was directly injected into the radio-HPLC. Ligand stability was determined by integrating the areas of the signals in the radio chromatogram in relation to the signal of the intact ligand.

human serum = assay: Protein binding in fresh human serum (Sephadex MicroSpin G-50 columns); type: in vitro ADME; details: 37° C., 30 min
Experimental: Protein binding was determined for different time points (2 min, 30 min, 60 min, 120 min) in triplicates using Sephadex MicroSpin G-50 columns (GE-Healthcare, Chicago, Illinois, USA). The columns were spun initially at 20,000 rcf for 1 min to remove the storage buffer. Then approx. 5 MBq of radioligand was added to 1 mL of fresh human serum and incubated at 37° C. At each given timepoint 25 μL of the mixture was loaded on to the column, which was then spun at 20,000 rcf for 1 min. The activity content on the column (free radioligand) and in the filtrate (protein bound fraction) was quantified in a γ-counter.

[4] = 30 min p.i., blocking with 277 mM N-Acetylgalactose

CC(=O)N[C@H]1[C@H](OCCOCCOCCn2cc(CNC(=O)CCP(=O)([O-])CN3CCN(CP(=O)([O-])CCC(=O)NCc4cn(CCOCCOCCO[C@@H]5O[C@H](CO)[C@H](O)[C@H](O)[C@H]5NC(C)=O)nn4)CCN(CP(=O)([O-])CCC(=O)NCc4cn(CCOCCOCCO[C@@H]5O[C@H](CO)[C@H](O)[C@H](O)[C@H]5NC(C)=O)nn4)CC3)nn2)O[C@H](CO)[C@H](O)[C@@H]1O.[68Ga+3] [[^68Ga]Ga-TRAP-GalNAc]
Liver uptake compared with [^99mTc]Tc-GSA [1]: comparable
Biodistribution Blood ([1]; 10 min p.i.): 0.64 ± 0.04 % ID/g
Biodistribution Femur ([1]; 10 min p.i.): 0.27 ± 0.04 % ID/g
Biodistribution Heart ([1]; 10 min p.i.): 0.69 ± 0.12 % ID/g
Biodistribution Intestine ([1]; 10 min p.i.): 0.63 ± 0.06 % ID/g
Biodistribution Kidneys ([1]; 10 min p.i.): 1.43 ± 0.10 % ID/g
Biodistribution Liver ([1]; 10 min p.i.): 69.1 ± 4.18 % ID/g
Biodistribution Lung ([1]; 10 min p.i.): 0.92 ± 0.11 % ID/g
Biodistribution Muscle ([1]; 10 min p.i.): 0.55 ± 0.03 % ID/g
Biodistribution Pancreas ([1]; 10 min p.i.): 0.92 ± 0.17 % ID/g
Biodistribution Spleen ([1]; 10 min p.i.): 0.24 ± 0.05 % ID/g
Biodistribution Stomach ([1]; 10 min p.i.): 0.86 ± 0.15 % ID/g
Biodistribution Blood ([1]; 30 min p.i.): 0.57 ± 0.09 % ID/g
Biodistribution Femur ([1]; 30 min p.i.): 0.47 ± 0.12 % ID/g
Biodistribution Heart ([1]; 30 min p.i.): 0.73 ± 0.02 % ID/g
Biodistribution Intestine ([1]; 30 min p.i.): 4.16 ± 0.35 % ID/g
Biodistribution Kidneys ([1]; 30 min p.i.): 1.68 ± 0.30 % ID/g
Biodistribution Liver ([1]; 30 min p.i.): 63.88 ± 2.23 % ID/g
Biodistribution Lung ([1]; 30 min p.i.): 1.02 ± 0.06 % ID/g
Biodistribution Muscle ([1]; 30 min p.i.): 0.74 ± 0.08 % ID/g
Biodistribution Pancreas ([1]; 30 min p.i.): 1.50 ± 0.49 % ID/g
Biodistribution Spleen ([1]; 30 min p.i.): 0.20 ± 0.02 % ID/g
Biodistribution Stomach ([1]; 30 min p.i.): 1.60 ± 0.56 % ID/g
Biodistribution Blood [1, 4]: 0.80 ± 0.04 % ID/g
Biodistribution Femur [1, 4]: 0.32 ± 0.12 % ID/g
Biodistribution Heart [1, 4]: 0.31 ± 0.02 % ID/g
Biodistribution Intestine [1, 4]: 0.71 ± 0.06 % ID/g
Biodistribution Kidneys [1, 4]: 2.86 ± 0.21 % ID/g
Biodistribution Liver [1, 4]: 10.98 ± 0.44 % ID/g
Biodistribution Lung [1, 4]: 0.73 ± 0.02 % ID/g
Biodistribution Muscle [1, 4]: 0.28 ± 0.05 % ID/g
Biodistribution Pancreas [1, 4]: 0.39 ± 0.04 % ID/g
Biodistribution Spleen [1, 4]: 0.24 ± 0.01 % ID/g
Biodistribution Stomach [1, 4]: 0.53 ± 0.06 % ID/g
Biodistribution Blood ([1]; 60 min p.i.): 0.23 ± 0.02 % ID/g
Biodistribution Femur ([1]; 60 min p.i.): 0.49 ± 0.11 % ID/g
Biodistribution Heart ([1]; 60 min p.i.): 0.82 ± 0.27 % ID/g
Biodistribution Intestine ([1]; 60 min p.i.): 4.53 ± 0.35 % ID/g
Biodistribution Kidneys ([1]; 60 min p.i.): 0.79 ± 0.07 % ID/g
Biodistribution Liver ([1]; 60 min p.i.): 54.20 ± 7.95 % ID/g
Biodistribution Lung ([1]; 60 min p.i.): 0.71 ± 0.10 % ID/g
Biodistribution Muscle ([1]; 60 min p.i.): 0.57 ± 0.01 % ID/g
Biodistribution Pancreas ([1]; 60 min p.i.): 0.76 ± 0.11 % ID/g
Biodistribution Spleen ([1]; 60 min p.i.): 0.17 ± 0.05 % ID/g
Biodistribution Stomach ([1]; 60 min p.i.): 0.54 ± 0.02 % ID/g
logD [2]: −4.2±0.08
Serum stability (% of intact ligand) [3]: high serum stability
Serum stability (% of intact ligand) ([3]; listed as [^68Ga]Ga-TRAP-GalNAC): 99.7 ± 0.1%
Protein binding (%) (human serum): 24.3 ± 5.2%
